Tests used:
Assay type in all cases: functional
[1] = system: CCRF-CEM; assay: Growth inhibition of human CCRF-CEM cells after 48 hrs by sulforhodamine B assay
[2] = system: K562; assay: Growth inhibition of human K562 cells after 48 hrs by sulforhodamine B assay; conditions: K562, 48 h
[3] = system: RPMI-8226; assay: Growth inhibition of human RPMI8226 cells after 48 hrs by sulforhodamine B assay; conditions: RPMI-8226, 48 h
[4] = system: NCI-H23; assay: Growth inhibition of human NCI-H23 cells after 48 hrs by sulforhodamine B assay; conditions: NCI-H23, 48 h
[5] = system: NCI-H322M; assay: Growth inhibition of human NCI-H322M cells after 48 hrs by sulforhodamine B assay
[6] = system: A549; assay: Growth inhibition of human A549 cells after 48 hrs by sulforhodamine B assay; conditions: A549, 48 h
[7] = system: NCI-H460; assay: Growth inhibition of human NCI-H460 cells after 48 hrs by sulforhodamine B assay; conditions: NCI-H460, 48 h
[8] = system: HCT-116; assay: Growth inhibition of human HCT116 cells after 48 hrs by sulforhodamine B assay; conditions: HCT-116, 48 h
[9] = system: HCT-15; assay: Growth inhibition of human HCT15 cells after 48 hrs by sulforhodamine B assay; conditions: HCT-15, 48 h
[10] = system: HT-29; assay: Growth inhibition of human HT-29 cells after 48 hrs by sulforhodamine B assay; conditions: HT-29, 48 h
[11] = system: KM12; assay: Growth inhibition of human KM12 cells after 48 hrs by sulforhodamine B assay; conditions: KM12, 48 h
[12] = system: SW-620; assay: Growth inhibition of human SW620 cells after 48 hrs by sulforhodamine B assay; conditions: SW-620, 48 h
[13] = system: SF-295; assay: Growth inhibition of human SF295 cells after 48 hrs by sulforhodamine B assay; conditions: SF-295, 48 h
[14] = system: SF-539; assay: Growth inhibition of human SF539 cells after 48 hrs by sulforhodamine B assay; conditions: SF-539, 48 h
[15] = system: SNB-75; assay: Growth inhibition of human SNB75 cells after 48 hrs by sulforhodamine B assay; conditions: SNB-75, 48 h
[16] = system: Malme-3M; assay: Growth inhibition of human MALME-3M cells after 48 hrs by sulforhodamine B assay
[17] = system: M14; assay: Growth inhibition of human M14 cells after 48 hrs by sulforhodamine B assay; conditions: M14, 48 h
[18] = system: MDA-MB-435; assay: Growth inhibition of human MDA-MB-435 cells after 48 hrs by sulforhodamine B assay; conditions: MDA-MB-435, 48 h
[19] = system: SK-MEL-2; assay: Growth inhibition of human SK-MEL-2 cells after 48 hrs by sulforhodamine B assay; conditions: SK-MEL-2, 48 h
[20] = system: UACC-257; assay: Growth inhibition of human UACC257 cells after 48 hrs by sulforhodamine B assay; conditions: UACC-257, 48 h
[21] = system: UACC-62; assay: Growth inhibition of human UACC62 cells after 48 hrs by sulforhodamine B assay; conditions: UACC-62, 48 h
[22] = system: OVCAR-4; assay: Growth inhibition of human OVCAR4 cells after 48 hrs by sulforhodamine B assay; conditions: OVCAR-4, 48 h
[23] = system: OVCAR-5; assay: Growth inhibition of human OVCAR5 cells after 48 hrs by sulforhodamine B assay; conditions: OVCAR-5, 48 h
[24] = system: OVCAR-8; assay: Growth inhibition of human OVCAR8 cells after 48 hrs by sulforhodamine B assay; conditions: OVCAR-8, 48 h
[25] = system: SK-OV-3; assay: Growth inhibition of human SKOV3 cells after 48 hrs by sulforhodamine B assay; conditions: SK-OV-3, 48 h
[26] = system: A498; assay: Growth inhibition of human A498 cells after 48 hrs by sulforhodamine B assay; conditions: A498, 48 h
[27] = system: ACHN; assay: Growth inhibition of human ACHN cells after 48 hrs by sulforhodamine B assay
[28] = system: SN12C; assay: Growth inhibition of human SN12C cells after 48 hrs by sulforhodamine B assay
[29] = system: UO-31; assay: Growth inhibition of human UO31 cells after 48 hrs by sulforhodamine B assay; conditions: UO-31, 48 h
[30] = system: PC-3; assay: Growth inhibition of human PC3 cells after 48 hrs by sulforhodamine B assay; conditions: PC-3, 48 h
[31] = system: T47D; assay: Growth inhibition of human T47D cells after 48 hrs by sulforhodamine B assay
[32] = system: MDA-MB-468; assay: Growth inhibition of human MDA-MB-468 cells after 48 hrs by sulforhodamine B assay; conditions: MDA-MB-468, 48 h

## COc1cc(/C=C/c2cc3c(c(SC)c2)O[C@]2(C)CC[C@@H](O)C(C)(C)[C@H]2C3)cc(O)c1C/C=C(\C)CCC=C(C)C
[1]
  GI50: 5.62 µM
  LC50: > 100 µM
[1]; read-out: pTGI (converted)
  TGI: > 100 µM
[2]
  GI50: 4.27 µM
  LC50: > 100 µM
[2]; read-out: pTGI (converted)
  TGI: > 100 µM
[3]
  GI50: 2.34 µM
  LC50: > 100 µM
[3]; read-out: pTGI (converted)
  TGI: 8.91 µM
[4]
  GI50: 11.5 µM
  LC50: > 100 µM
[4]; read-out: pTGI (converted)
  TGI: 36.3 µM
[5]
  GI50: 51.3 µM
  LC50: > 100 µM
[5]; read-out: pTGI (converted)
  TGI: > 100 µM
[6]
  LC50: > 100 µM
[6]; read-out: GI50
  GI50: 6.03 µM
[6]; read-out: pGI50 (converted)
  GI50: 6.03 µM
[6]; read-out: pTGI (converted)
  TGI: 52.5 µM
[7]
  GI50: 3.47 µM
  LC50 (concentration killing 50% of cells): 51.3 µM
[7]; read-out: pTGI (converted)
  TGI: 13.8 µM
[8]
  GI50: 6.46 µM
  LC50: 53.7 µM
[8]; read-out: pTGI (converted)
  TGI: 20.9 µM
[9]
  GI50: 2.95 µM
  LC50: 72.4 µM
[9]; read-out: pTGI (converted)
  TGI: 8.91 µM
[10]
  GI50: 2.09 µM
  LC50 (concentration killing 50% of cells): > 100 µM
[10]; read-out: pTGI (converted)
  TGI: 16.2 µM
[11]
  GI50: 4.27 µM
  LC50: 83.2 µM
[11]; read-out: pTGI (converted)
  TGI: 20.4 µM
[12]
  GI50: 6.76 µM
  LC50: 50.1 µM
[12]; read-out: pTGI (converted)
  TGI: 20.9 µM
[13]
  LC50: > 100 µM
[13]; read-out: GI50
  GI50: 3.8 µM
[13]; read-out: pGI50 (converted)
  GI50: 3.02 µM
[13]; read-out: pTGI (converted)
  TGI: 25.1 µM
[14]
  GI50: 3.98 µM
  LC50: > 100 µM
[14]; read-out: pTGI (converted)
  TGI: 41.7 µM
[15]
  GI50: 3.8 µM
  LC50: > 100 µM
[15]; read-out: pTGI (converted)
  TGI: 33.1 µM
[16]
  GI50: 30.9 µM
  LC50: > 100 µM
[16]; read-out: pTGI (converted)
  TGI: > 100 µM
[17]
  GI50: 8.13 µM
  LC50: 95.5 µM
[17]; read-out: pTGI (converted)
  TGI: 28.8 µM
[18]
  GI50: 12.9 µM
  LC50: > 100 µM
[18]; read-out: pTGI (converted)
  TGI: 74.1 µM
[19]
  GI50: 12.6 µM
  LC50: 69.2 µM
[19]; read-out: pTGI (converted)
  TGI: 29.5 µM
[20]
  GI50: 14.5 µM
  LC50: > 100 µM
[20]; read-out: pTGI (converted)
  TGI: 64.6 µM
[21]
  GI50: 7.08 µM
  LC50 (50% lethal concentration): > 100 µM
[21]; read-out: pTGI (converted)
  TGI: 28.8 µM
[22]
  GI50: 23.4 µM
  LC50: > 100 µM
[22]; read-out: pTGI (converted)
  TGI: > 100 µM
[23]
  GI50: 22.9 µM
  LC50: > 100 µM
[23]; read-out: pTGI (converted)
  TGI: 57.5 µM
[24]
  GI50: 14.8 µM
  LC50: > 100 µM
[24]; read-out: pTGI (converted)
  TGI: 41.7 µM
[25]
  GI50: 7.94 µM
  LC50: > 100 µM
[25]; read-out: pTGI (converted)
  TGI: 43.7 µM
[26]
  GI50: 4.57 µM
  LC50: 67.6 µM
[26]; read-out: pTGI (converted)
  TGI: 22.4 µM
[27]
  GI50: 10.7 µM
  LC50: > 100 µM
[27]; read-out: pTGI (converted)
  TGI: > 100 µM
[28]
  GI50: 10.5 µM
  LC50: > 100 µM
[28]; read-out: pTGI (converted)
  TGI: 32.4 µM
[29]
  GI50: 8.91 µM
  LC50: > 100 µM
[29]; read-out: pTGI (converted)
  TGI: > 100 µM
[30]
  GI50: 6.03 µM
[30]; read-out: pLC50 (the source's name) (converted)
  CC50: > 100 µM
[30]; read-out: pTGI (converted)
  TGI: 51.3 µM
[31]
  GI50: 14.5 µM
  LC50: > 100 µM
[31]; read-out: pTGI (converted)
  TGI: 67.6 µM
[32]
  GI50: 4.57 µM
  LC50: 87.1 µM
[32]; read-out: pTGI (converted)
  TGI: 20 µM

Source: ChEMBL document CHEMBL1926642, “Relevance of the C-5 position to schweinfurthin induced cytotoxicity” (2011)
